Key:
P. aeruginosa H187 = assay type: cell-based, Pseudomonas aeruginosa; settings: H187
Procedure, shortened: (§1)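 Minimum inhibitory concentrations come from a broth rather than agar assay, using LB medium, a final inoculum of 5×10^5 CFU/mL and overnight incubation at 37 °C. Values are in μg/ml.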

P. aeruginosa H188 = assay type: cell-based, Pseudomonas aeruginosa; settings: H188
Procedure, shortened: (§2)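 Antimicrobial activity is measured by a liquid-broth assay in LB at 37 °C overnight, starting from 5×10^5 CFU/mL. Values are minimal inhibitory concentrations, i.e. the lowest concentration that stops growth.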

E. coli UB1005 = assay type: cell-based, Escherichia coli; settings: UB1005
Procedure, shortened: as §2

E. coli DC2 = assay type: cell-based, Escherichia coli; settings: DC2
Procedure, shortened: as §1

S. typhinurium C587 = assay type: cell-based, Salmonella typhinurium
Procedure, shortened: as §2

S. typhinurium C610 = assay type: cell-based, Salmonella typhinurium
Procedure, shortened: as §2

S. aureus K147 = assay type: cell-based, Staphylococcus aureus
Procedure, shortened: (§3)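 MIC read-out, μg/ml, lowest peptide concentration with no growth after overnight incubation at 37 °C in LB liquid broth. Inoculum 5×10^5 CFU/mL from overnight cultures. Therapeutic index = concentration giving complete blood-cell lysis at 4 h divided by MIC.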

S. aureus SAP0017 = assay type: cell-based, Staphylococcus aureus
Procedure, shortened: as §3

S. epidermidis = assay type: cell-based, Staphylococcus epidermidis
Procedure, shortened: (§4)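 Liquid-broth rather than agar method. Organisms: clinical isolates (C. albicans, S. epidermidis), environmental C. xerosis, wild-type E. coli UB1005.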

B. subtilis = assay type: cell-based, Bacillus subtilis
Procedure, shortened: as §2

E. faecalis = assay type: cell-based, Enterococcus faecalis
Procedure, shortened: as §2

C. xeroses = assay type: cell-based, Corynebacterium xerosis
Procedure, shortened: as §4

C. Albicans = assay type: cell-based, Candida albicans
Procedure, shortened: as §4

human erythrocytes = assay: Hemolytic activity; assay type: cell-based
Experimental: Serial dilutions of the peptides in saline were prepared in round bottom microtitre plates using 100 μL volumes. Red blood cells were diluted with saline to 1/25 packed volume of cells and 50 μL added to each well. Plates were incubated with rocking at 37° C., and the concentration required for complete lysis determined visually after 4 h.

[1] = Displacement of dansyl-polymyxin from LPS; assay type: binding, P. aeruginosa; settings: read-out: LPS binding affinity: peptide concentration to displace 50% of dansyl-polymyxin B from LPS; Tables 1, 4, 7
Procedure, shortened: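 Peptides titrated into 3 μg/mL P. aeruginosa LPS with 2.5 μM dansyl-polymyxin (~90% site saturation) in 5 mM sodium HEPES, pH 7.0; fluorescence decrease recorded. I50 (50% probe displacement) taken from the x-intercept of a double-reciprocal plot of percent inhibition versus inhibitor concentration.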

Compound | Minimum Inhibitory Concentration (activity) (P. aeruginosa H187) [µg/mL] | Minimum Inhibitory Concentration (activity) (P. aeruginosa H188) [µg/mL] | Minimum Inhibitory Concentration (activity) (E. coli UB1005) [µg/mL] | Minimum Inhibitory Concentration (activity) (E. coli DC2) [µg/mL] | Minimum Inhibitory Concentration (activity) (S. typhinurium C587) [µg/mL] | Minimum Inhibitory Concentration (activity) (S. typhinurium C610) [µg/mL] | Minimum Inhibitory Concentration (activity) (S. aureus K147) [µg/mL] | Minimum Inhibitory Concentration (activity) (S. aureus SAP0017) [µg/mL] | Minimum Inhibitory Concentration (activity) (S. epidermidis) [µg/mL] | Minimum Inhibitory Concentration (activity) (B. subtilis) [µg/mL] | Minimum Inhibitory Concentration (activity) (E. faecalis) [µg/mL] | Minimum Inhibitory Concentration (activity) (C. xeroses) [µg/mL] | Minimum Inhibitory Concentration (activity) (C. Albicans) [µg/mL] | Hemolytic activity: peptide concentration for 100% lysis of human erythrocytes (human erythrocytes) [µg/mL] | IC50 [1] [µM]
CC(C)C[C@@H]1NC(=O)[C@H](CCCCN)NC(=O)[C@H](C(C)C)NC(=O)[C@H](CCCCN)NC(=O)[C@@H]2CCCN2C(=O)[C@@H](Cc2ccc(O)cc2)NC(=O)[C@H](CCCCN)NC(=O)[C@H](CC(C)C)NC(=O)[C@H](CCCCN)NC(=O)[C@H](C(C)C)NC(=O)[C@@H](CCCCN)NC(=O)[C@@H]2CCCN2C(=O)[C@@H](Cc2ccc(O)cc2)NC(=O)[C@H](CCCCN)NC1=O [GS14invK1] | 12.5 | 9 | 25 | 25 | 150 | 62 | >200 | >200 | 100 | >200 | >200 | 6.2 | 200 | >800 | 43
CC(C)C[C@@H]1NC(=O)[C@H](CCCCN)NC(=O)[C@H](C(C)C)NC(=O)[C@H](CCCCN)NC(=O)[C@@H]2CCCN2C(=O)[C@@H](Cc2ccc(O)cc2)NC(=O)[C@H](CCCCN)NC(=O)[C@H](CC(C)C)NC(=O)[C@H](CCCCN)NC(=O)[C@H](C(C)C)NC(=O)[C@H](CCCCN)NC(=O)[C@@H]2CCCN2C(=O)[C@@H](Cc2ccc(O)cc2)NC(=O)[C@H](CCCCN)NC1=O [GS14inv] | 12.5 | 6.2 | 12.5 | 0.8 | 50 | 3.1 | >200 | 200 | 25 | >200 | 200 | 0.8 | 25 | >800 | 14

— patent US6358921B1, “Antimicrobial peptide compositions and method” (priority 1996, dated 2002)
